Measured values taken from US20180012623A1, “Ionic Liquid, Lubricant, and Magnetic Recording Medium” (Dexerials Corporation, priority 2016, published 2018).
Where two headings read alike, the source gives them in different places.

Assays:
[1] = Measurement of thermal stability (TG/DTA weight reduction temperature); assay type: physicochemical; conditions: for Weight reduction temperature 5% / Weight reduction temperature 10% / Weight reduction temperature 20%: TG/DTA, 30° C. to 600° C., 10° C./min, air 200 mL/min; for Weight reduction temperatures higher than those of Z-TETRAOL by: compared with Z-TETRAOL (Comparative Example 7C); for Weight reduction temperatures higher than those of Z-DOL by: compared with perfluoropolyether Z-DOL (Comparative Example 6C)
[2] = Solubility test of ionic liquids in Vertrel XF and n-hexane (visual observation)
Experimental: To a predetermined amount of Vertrel XF or n-hexane, the ionic liquid was added. Ultrasonic waves were applied to the resultant mixture for 5 minutes, followed by leaving the mixture to stand for 1 day. The solubility was visually observed.
After applying ultrasonic waves to the resultant for 5 minutes, the resultant was left to stand for 1 day. Thereafter, the solubility was visually observed and evaluated based on the following evaluation criteria. […] Similarly, after applying ultrasonic waves to the resultant for 5 minutes, the resultant was left to stand for 1 day. Thereafter, the solubility was visually observed and evaluated based on the following evaluation criteria.
Note that, the solubility was visually observed, and it was judged as soluble when it was transparent. Moreover, it was judged as not soluble (insoluble) when it was opaque or insoluble components were observed.
The results are presented in Table 2. • [Evaluation Criteria]
• 0.2% by mass or greater:
Soluble with addition of 0.2 parts by mass • Less than 0.2% by mass:
Insoluble with addition of 0.2 parts by mass
<<n-Hexane>> • 0.5% by mass or greater:
Soluble with addition of 0.5 parts by mass • Less than 0.5% by mass:
Insoluble with addition of 0.5 parts by mass

[3] = in acetonitrile; cited from earlier work
[4] = Vertrel XF [CF3(CHF)2CF2CF3], 25° C., 0.2 parts by mass added to 100 parts by mass, ultrasonic 5 minutes, left 1 day, visual
[5] = n-hexane, 25° C., 0.5 parts by mass added to 100 parts by mass, ultrasonic 5 minutes, left 1 day, visual

Compound	Weight reduction temperature 5% [1] [°C]	Weight reduction temperature 10% [1] [°C]	Weight reduction temperature 20% [1] [°C]	Weight reduction temperatures higher than those of Z-TETRAOL by [1] [°C]	Weight reduction temperatures higher than those of Z-DOL by [1] [°C]	pKa [3]	also measured
CCCCCCCCCCCCCCCCCC[n+]1ccn(CCCC)c1.O=S1(=O)[N-]S(=O)(=O)C(F)(F)C(F)(F)C1(F)F [2A, hexafluorocyclopropane-1,3-bis(sulfonyl)imide-1-butyl-3-n-octadecylimidazolium, reference compound]	347.2	367.0	387.8				Solubility, Fluorine-based solvent [2]: less than 0.2% by mass; Solubility, n-Hexane [2]: less than 0.5% by mass
CCCCCCCCCCCCCCCCCCn1ccnc1CCCCCCCCCCCCCCCCC.O=S(=O)(O)C(F)(F)C(F)(F)C(F)(F)C(F)(F)F [4A, nonafluorobutanesulfonic acid-1-octadecyl-2-heptadecyimidazole, reference compound]	338.2	365.9	390.1				Solubility, Fluorine-based solvent [2, 4]: less than 0.2% by mass; Solubility, n-Hexane [2, 5]: less than 0.5% by mass
CCCCCCCCCCCCn1ccnc1CCCCCCCCCCC.O=S(=O)(NS(=O)(=O)C(F)(F)C(F)(F)C(F)(F)C(F)(F)F)C(F)(F)C(F)(F)C(F)(F)C(F)(F)F [Ex. 2A, bis(nonafluorobutanesulfonyl)imide-1-dodecyl-2-undecylimidazolium]	337.7	361.6	383.8	≥ 100	≥ 160		Solubility, Fluorine-based solvent [2, 4]: ≥ 0.2% by mass; Solubility, Fluorine-based solvent ([2]; Vertrel XF [CF3(CHF)2CF2CF3], 25° C., 0.2 parts by mass added to 100 parts by mass, ultrasonic 5 minutes, left 1 day, visual, listed as Example 2A): ≥ 0.2 % by mass; Solubility, n-Hexane [2, 5]: ≥ 0.5% by mass; Solubility, n-Hexane ([2]; n-hexane, 25° C., 0.5 parts by mass added to 100 parts by mass, ultrasonic 5 minutes, left 1 day, visual, listed as Example 2A): ≥ 0.5 % by mass
CCCCCCCCCCCCCCCCCCn1ccnc1CCCCCCCCCCC.O=S(=O)(NS(=O)(=O)C(F)(F)C(F)(F)C(F)(F)C(F)(F)F)C(F)(F)C(F)(F)C(F)(F)C(F)(F)F [Ex. 4A, bis(nonafluorobutanesulfonyl)imide-1-octadecyl-2-undecylimidazolium]	329.1	362.4	388.4	≥ 90	≥ 160		
O=S(=O)(NS(=O)(=O)C(F)(F)C(F)(F)C(F)(F)C(F)(F)F)C(F)(F)C(F)(F)C(F)(F)C(F)(F)F [bis(nonafluorobutanesulfonyl)imide]						0.0	
O=S1(=O)NS(=O)(=O)C(F)(F)C(F)(F)C1(F)F [hexafluorocyclopropane-1,3-bis(sulfonyl)imide]						−0.8	
F[B-](F)(F)F.[H+] [tetrafluoroboric acid]						1.8	
nonafluorobutanesulfonic acid-1-dodecyl-2-undecylimidazolium [Ex. 1A]	349.4	374.1	398.9	≥ 100	≥ 170		
nonafluorobutanesulfonic acid-1-octadecyl-2-undecylimidazolium [Ex. 3A]	328.3	368.1	396.7	≥ 80	≥ 170		
nonafluorobutanesulfonic acid-1-octadecylimidazolium [1A, reference compound]	349.3	375.0	397.5				
nonafluorobutanesulfonic acid-2-heptadecylimidazole [3A, reference compound]	365.4	390.5	414.3				
pentadecafluorooctanoic acid octadecyl ammonium [5A, reference compound]	206.9	215.8	223.4				Thermal stability (in words) ([1]; summary of Table 3): lacking in thermal stability
perfluorocyclopropane sulfoimide						−0.8	
